In patent US10544130B2, “Metallo-beta-lactamase inhibitors” (priority 2015, dated 2020):
Read-outs that look alike come from different tables or passages of the source.

How the values were obtained:
[1] = tested on: Escherichia coli expressing NDM-1 (CLB30005, CLB30016); assay type: cell-based; conditions: with imipenem 1 μg/ml, 95% inhibition of bacterial growth
Experimental: (§1) Antibiotic Potentiation Activity: Determination of Synergistic Concentration
(§2) The bacterial strains tested included the clinical strains Escherichia coli expressing NDM-1 (CLB30005, CLB30016), Serratia marcescens expressing IMP-1 (CL5741), and Klebsiella pneumoniae expressing VIM-1 (IHMA599644). Inhibitor activity was measured in the presence and absence of imipenem in a 384-well microplate.
(§3) The clinical strains CLB30016, CL5741 and IHMA599644 were grown on trypticase soy agar containing 5% sheep's blood. The bacteria on agar plates were incubated at 35° C. with humidity overnight. The following day, individual colonies from each clinical strain were picked and resuspended in 5 ml saline to attain an OD600 of 0.14, 0.11, 0.15 and 0.13, for CLB30016, CL5741 and IHMA599644, respectively. These were further diluted 1:100 into 1.1× CAMHB and used to inoculate the test wells as described below.
(§4) Imipenem in 10 mM 3-(N-morpholino)propanesulfonic acid (MOPS, pH 7) was stored in single use aliquots at −80° C. […] On the day of the assay, 4 μl of antibiotic was added to 45 ul of bacteria followed by 1 μl of test compound and mixed by pipetting and with an orbital shaker. The concentration of antibiotic used in the assay was 1 μg/ml. Microplates were covered and incubated at 35° C. for 22 hours to 24 hours. At the end of the incubation, absorbance was determined using a spectrophotometer.

[2] = tested on: Pseudomonas aeruginosa PAO1 MB9798 (efflux+, IMP-1); conditions: ratio MITC95 PA 9798/MITC95 PA 9799; imipenem at 2 μg/mL
Summary of the method: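 Isogenic PAO1 pair (efflux+ MB9798, efflux− MB9799, both IMP-1) tested by microbroth MIC with fixed imipenem and/or ceftazidime, usually at CLSI breakpoint, plus fixed class A/C inhibitor against AmpC. MBL inhibitor titrated; concentration restoring susceptibility recorded and fold difference between strains taken as efflux extent.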

[3] = tested on: Serratia marcescens expressing IMP-1 (CL5741); assay type: cell-based; conditions: with imipenem 1 μg/ml; 95% inhibition of bacterial growth
Experimental: as §1, §2, §3, §4

SMILES	Escherichia coli (NDM-1) MITC95 [1] [µM]	Efflux ratio [2]	also measured
NCc1nc2cc(-c3ccc(S(=O)(=O)N[C@@H]4CCNC4)c(S(N)(=O)=O)c3-c3nn[nH]n3)ccc2[nH]1 [Example 274, (R)-4-(2-(aminomethyl)-1H-benzo[d]imidazol-5-yl)-N1-(pyrrolidin-3-yl)-3-(2H-tetrazol-5-yl)benzene-1,2-disulfonamide]	0.7813	1.00	
NCC(CN)NS(=O)(=O)c1ccc(-c2ccnc(-c3cnc(N)[nH]3)c2)c(-c2nnn[nH]2)c1S(N)(=O)=O [Example 437, 4-(2-(2-Amino-1H-imidazol-5-yl)pyridin-4-yl)-N^1-(1,3-diaminopropan-2-yl)-3-(1H-tetrazol-5-yl)benzene-1,2-disulfonamide]	0.7813		
NCc1nc2cc(-c3ccc(S(=O)(=O)N[C@@H](CN)CO)c(S(N)(=O)=O)c3-c3nn[nH]n3)ccc2[nH]1 [Example 474, (S)-N1-(1-amino-3-hydroxypropan-2-yl)-4-(2-(aminomethyl)-1H-benzo[d]imidazol-5-yl)-3-(2H-tetrazol-5-yl)benzene-1,2-disulfonamide]	0.7813		
NC[C@@H](CO)NS(=O)(=O)c1ccc(-c2cccc3[nH]c(N)nc23)c(-c2nnn[nH]2)c1S(N)(=O)=O [Example 426, (S)-4-(2-Amino-1H-benzo[d]imidazol-4-yl)-N^1-(1-amino-3-hydroxypropan-2-yl)-3-(1H-tetrazol-5-yl)benzene-1,2-disulfonamide]	0.3906		
NCC(=O)NC1CCC[C@@H](c2ccc(S(=O)(=O)N[C@@H]3CCNC3)c(S(N)(=O)=O)c2-c2nn[nH]n2)C1 (stereo partly drawn) [Example 270, 2-Amino-N-((3R)-3-(4-(N—((R)-pyrrolidin-3-yl)sulfamoyl)-3-sulfamoyl-2-(2H-tetrazol-5-yl)phenyl)cyclohexyl)acetamide]	1.563	1.00	
Nc1nc2c(-c3ccc(S(=O)(=O)NC4CCNCC4)c(S(N)(=O)=O)c3-c3nn[nH]n3)cccc2[nH]1 [Example 260, 4-(2-amino-1H-benzo[d]imidazol-4-yl)-N1-(piperidin-4-yl)-3-(1H-tetrazol-5-yl)benzene-1,2-disuffonamide]	0.7813	1.00	
NCc1nc2cc(-c3ccc(S(=O)(=O)NC[C@@H](O)CN)c(S(N)(=O)=O)c3-c3nn[nH]n3)ccc2[nH]1 [Example 465, (S)-N1-(3-amino-2-hydroxypropyl)-4-(2-(aminomethyl)-1H-benzo[d]imidazol-5-yl)-3-(2H-tetrazol-5-yl)benzene-1,2-disulfonamide]	0.7813		
C[C@H](CN)NS(=O)(=O)c1ccc(-c2cccn3ccnc23)c(-c2nn[nH]n2)c1S(N)(=O)=O [Example 384, (R)—N1-(1-aminopropan-2-yl)-4-(imidazo[1,2-a]pyridin-8-yl)-3-(2H-tetrazol-5-yl)benzene-1,2-disulfonamide]	1.563	0.50	
Nc1cccc(-c2ccc(S(=O)(=O)N[C@@H]3CCNC3)c(S(N)(=O)=O)c2-c2nn[nH]n2)n1 [Example 277, (R)-4-(6-aminopyridin-2-yl)-N1-(pyrrolidin-3-yl)-3-(2H-tetrazol-5-yl)benzene-1,2-disulfonamide]	0.7813	1.00	
Nc1nc2c(-c3ccc(S(=O)(=O)NC[C@H]4CNCCN4)c(S(N)(=O)=O)c3-c3nn[nH]n3)cccc2[nH]1 [Example 314, (R)-4-(2-amino-1H-benzo[d]imidazol-4-yl)-N1-(piperazin-2-ylmethyl)-3-(2H-tetrazol-5-yl)benzene-1,2-disulfonamide]	0.7813	1.00	
NCc1nc2cc(-c3ccc(S(=O)(=O)NC[C@@H](O)CN)c(S(N)(=O)=O)c3-c3nn[nH]n3)ccc2s1 [Example 473, (S)-N1-(3-amino-2-hydroxypropyl)-4-(2-(aminomethyl)benzo[d]thiazol-5-yl)-3-(2H-tetrazol-5-yl)benzene-1,2-disulfonamide]	0.7813		
NCCNc1cc(-c2ccc(S(=O)(=O)N[C@@H]3CCNC3)c(S(N)(=O)=O)c2-c2nn[nH]n2)ccn1 [Example 458, (R)-4-(2-((2-aminoethyl)amino)pyridin-4-yl)-N1-(pyrrolidin-3-yl)-3-(2H-tetrazol-5-yl)benzene-1,2-disulfonamide]	0.7813		
NCCNS(=O)(=O)c1ccc(-c2cccc3c2CCCN3)c(-c2nn[nH]n2)c1S(N)(=O)=O [Example 455, N1-(2-Aminoethyl)-4-(1,2,3,4-tetrahydroquinolin-5-yl)-3-(2H-tetrazol-5-yl)benzene-1,2-disulfonamide]	1.563		
NCCNS(=O)(=O)c1ccc(-c2cccc3[nH]c([C@@H]4C[C@@H](O)CN4)nc23)c(-c2nn[nH]n2)c1S(N)(=O)=O [Example 444, N1-(2-aminoethyl)-4-(2-((2S,4R)-4-hydroxypyrrolidin-2-yl)-1H-benzo[d]imidazol-4-yl)-3-(2H-tetrazol-5-yl)benzene-1,2-disulfonamide]	1.563		
C[C@@H](CCN)NS(=O)(=O)c1ccc(-c2ccc(N)nc2)c(-c2nn[nH]n2)c1S(N)(=O)=O [Example 499, (5)-N1-(4-aminobutan-2-yl)-4-(6-aminopyridin-3-yl)-3-(1H-tetrazol-5-yl)benzene-1,2-disulfonamide]			Escherichia coli (NDM-1) MITC95 ([1]; CLB30016): 0.7813 µM
C[C@H](CN)NS(=O)(=O)c1ccc(-c2cc(F)cc3[nH]c(N)nc23)c(-c2nn[nH]n2)c1S(N)(=O)=O [Example 396, (R)-4-(2-amino-6-fluoro-1H-benzo[d]imidazol-4-yl)-N^1-(1-aminopropan-2-yl)-3-(2H-tetrazol-5-yl)benzene-1,2-disulfonamide]	0.7813		
NCC(CN)NS(=O)(=O)c1ccc(-c2cccc3sc(N)nc23)c(-c2nn[nH]n2)c1S(N)(=O)=O [Example 436, 4-(2-aminobenzo[d]thiazol-4-yl)-N1-(1,3-diaminopropan-2-yl)-3-(2H-tetrazol-5-yl)benzene-1,2-disulfonamide]	0.7813		
NCc1nc2cc(-c3ccc(S(=O)(=O)N[C@@H](CN)CO)c(S(N)(=O)=O)c3-c3nn[nH]n3)ccc2s1 [Example 475, (S)-N1-(1-amino-3-hydroxypropan-2-yl)-4-(2-(aminomethyl)benzo[d]thiazol-5-yl)-3-(2H-tetrazol-5-yl)benzene-1,2-disulfonamide]	0.7813		
NCc1nc2cc(-c3ccc(S(=O)(=O)NC[C@H](O)CN)c(S(N)(=O)=O)c3-c3nn[nH]n3)ccc2[nH]1 [Example 464, (R)—N1-(3-amino-2-hydroxypropyl)-4-(2-(aminomethyl)-1H-benzo[d]imidazole-5-yl)-3-(2H-tetrazol-5-yl)benzene-1,2-disulfonamide]	0.7813		
NCCNS(=O)(=O)c1ccc(-c2ccc3[nH]c(CN)nc3c2)c(-c2nn[nH]n2)c1S(N)(=O)=O [Example 466, N1-(2-aminoethyl)-4-(2-(aminomethyl)-1H-benzo[d]imidazol-5-yl)-3-(2H-tetrazol-5-yl)benzene-1,2-disulfonamide]	0.7813		
NCCNc1cc(-c2ccc(S(=O)(=O)NCCO)c(S(N)(=O)=O)c2-c2nn[nH]n2)ccn1 [Example 457, 4-(2-((2-aminoethyl)amino)pyridin-4-yl)-N1-(2-hydroxyethyl)-3-(2H-tetrazol-5-yl)benzene-1,2-disulfonamide]	1.563		
NCCNS(=O)(=O)c1ccc(-c2cccc3ccc(N)nc23)c(-c2nn[nH]n2)c1S(N)(=O)=O [Example 355, N1-(2-aminoethyl)-4-(2-aminoquinolin-8-yl)-3-(2H-tetrazol-5-yl)benzene-1,2-disulfonamide]		1.00	Serratia marcescens (IMP-1) MITC95 [3]: 0.7813 µM
N[C@@H]1C=C(c2ccc(S(=O)(=O)N[C@@H]3CCNC3)c(S(N)(=O)=O)c2-c2nn[nH]n2)CCC1 [Example 340, (S)-5′-amino-N4-((R)-pyrrolidin-3-yl)-2-(2H-tetrazol-5-yl)-2′,3′,4′,5′-tetrahydro[1,1′-biphenyl]-3,4-disulfonamide]		4.00	Serratia marcescens (IMP-1) MITC95 [3]: 1.563 µM
NCCNS(=O)(=O)c1ccc(-c2cccc3[nH]c(C4CNC4)nc23)c(-c2nn[nH]n2)c1S(N)(=O)=O [Example 443, N1-(2-aminoethyl)-4-(2-(azetidin-3-yl)-1H-benzo[d]imidazol-4-yl)-3-(2H-tetrazol-5-yl)benzene-1,2-disulfonamide]	0.7813		
